Patent US8198273B2, “Compounds and methods for kinase modulation, and indications therefor” (Plexxikon Inc., priority 2009, dated 2012)

Assays:
CYP1A2 = biological target: T1, CYP1A2 (Homo sapiens, UniProt P05177); assay: CYP1A2 inhibition (fluorescent substrate); type: in vitro ADME; details: CYP1A2, CEC substrate; read-out: Cyp IC50 1A2
T1 sequence (P05177 1-516): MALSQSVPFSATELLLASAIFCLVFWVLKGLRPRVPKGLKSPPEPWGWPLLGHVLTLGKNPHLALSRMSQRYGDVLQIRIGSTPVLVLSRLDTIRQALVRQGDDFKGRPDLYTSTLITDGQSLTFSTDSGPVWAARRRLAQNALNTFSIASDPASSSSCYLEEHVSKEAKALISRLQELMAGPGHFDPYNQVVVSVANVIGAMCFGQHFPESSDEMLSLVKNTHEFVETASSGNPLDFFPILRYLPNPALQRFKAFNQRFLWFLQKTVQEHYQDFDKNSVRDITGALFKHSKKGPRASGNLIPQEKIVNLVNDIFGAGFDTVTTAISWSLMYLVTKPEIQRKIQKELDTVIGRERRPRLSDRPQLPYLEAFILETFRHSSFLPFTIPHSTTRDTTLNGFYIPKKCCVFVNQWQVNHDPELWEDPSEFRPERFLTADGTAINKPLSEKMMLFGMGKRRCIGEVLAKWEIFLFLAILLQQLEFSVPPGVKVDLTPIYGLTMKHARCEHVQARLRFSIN
In short: (§1)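 First, 100 mM DMSO stocks are diluted into acetonitrile, then twofold through co-factor mix for 10 points. Next, mixtures are preincubated 10 min at 37 °C.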

B-Raf = B-Raf (Homo sapiens, UniProt P15056); assay: B-Raf biochemical kinase inhibition (AlphaScreen, biotin-MEK1 substrate); details: 100 μM ATP
Sequence of B-Raf (P15056 whole entry): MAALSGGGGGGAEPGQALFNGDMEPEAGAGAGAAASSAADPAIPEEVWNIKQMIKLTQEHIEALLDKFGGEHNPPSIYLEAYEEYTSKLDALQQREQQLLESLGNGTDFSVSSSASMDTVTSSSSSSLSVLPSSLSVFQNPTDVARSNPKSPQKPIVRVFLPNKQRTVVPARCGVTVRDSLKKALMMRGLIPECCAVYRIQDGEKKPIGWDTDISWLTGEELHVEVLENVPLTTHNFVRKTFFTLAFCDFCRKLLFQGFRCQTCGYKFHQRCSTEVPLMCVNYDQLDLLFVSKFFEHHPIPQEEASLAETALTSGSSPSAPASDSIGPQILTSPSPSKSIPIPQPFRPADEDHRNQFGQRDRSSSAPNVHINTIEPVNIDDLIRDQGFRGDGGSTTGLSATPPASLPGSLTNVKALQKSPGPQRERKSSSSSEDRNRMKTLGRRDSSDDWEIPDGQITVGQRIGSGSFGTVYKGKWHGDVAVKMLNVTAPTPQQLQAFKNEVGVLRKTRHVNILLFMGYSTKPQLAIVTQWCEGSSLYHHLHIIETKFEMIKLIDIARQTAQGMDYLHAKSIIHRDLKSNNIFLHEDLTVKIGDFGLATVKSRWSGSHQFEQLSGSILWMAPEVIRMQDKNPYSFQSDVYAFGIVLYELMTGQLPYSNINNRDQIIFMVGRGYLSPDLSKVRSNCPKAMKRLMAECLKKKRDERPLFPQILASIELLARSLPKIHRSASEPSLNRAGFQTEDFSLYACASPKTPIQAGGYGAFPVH
In short: (§2)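 Serial 1:3 dilutions of compound (0.1 mM DMSO stock, eight points) were added first, then ATP to start the reaction at 100 μM final.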

CYP2C19 = CYP2C19 (Homo sapiens, UniProt P33261); assay: CYP2C19 inhibition (fluorescent substrate); type: in vitro ADME; details: CYP2C19, CEC substrate; read-out: Cyp IC50 2C19
Sequence of CYP2C19 (P33261 whole entry): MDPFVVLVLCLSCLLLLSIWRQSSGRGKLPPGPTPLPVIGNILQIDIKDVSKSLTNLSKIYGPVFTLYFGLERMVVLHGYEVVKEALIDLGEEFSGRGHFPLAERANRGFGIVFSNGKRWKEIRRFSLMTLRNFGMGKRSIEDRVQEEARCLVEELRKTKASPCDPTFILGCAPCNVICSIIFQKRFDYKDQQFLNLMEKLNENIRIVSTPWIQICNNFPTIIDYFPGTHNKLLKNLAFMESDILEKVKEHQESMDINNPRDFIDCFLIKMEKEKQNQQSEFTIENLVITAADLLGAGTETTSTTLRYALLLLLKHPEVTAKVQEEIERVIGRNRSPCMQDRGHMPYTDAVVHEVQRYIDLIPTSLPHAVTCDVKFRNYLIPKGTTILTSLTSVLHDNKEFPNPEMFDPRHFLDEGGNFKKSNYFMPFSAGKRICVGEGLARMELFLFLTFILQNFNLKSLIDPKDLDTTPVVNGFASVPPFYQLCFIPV
In short: as §1

B-Raf V600E = B-Raf V600E (Homo sapiens, UniProt P15056, V600E); assay: B-Raf V600E biochemical kinase inhibition (AlphaScreen, biotin-MEK1 substrate); details: 100 μM ATP
Sequence of B-Raf V600E (P15056 whole entry V600E): as the sequence (P15056 whole entry) above, with V600E counted along it
In short: as §2

CYP3A4(BFC) = CYP3A4(BFC) (Homo sapiens, UniProt P08684); assay: CYP3A4(BFC) inhibition (fluorescent substrate); type: in vitro ADME; details: read-out: Cyp IC50 3A4(BFC)
Sequence of CYP3A4(BFC) (P08684 whole entry): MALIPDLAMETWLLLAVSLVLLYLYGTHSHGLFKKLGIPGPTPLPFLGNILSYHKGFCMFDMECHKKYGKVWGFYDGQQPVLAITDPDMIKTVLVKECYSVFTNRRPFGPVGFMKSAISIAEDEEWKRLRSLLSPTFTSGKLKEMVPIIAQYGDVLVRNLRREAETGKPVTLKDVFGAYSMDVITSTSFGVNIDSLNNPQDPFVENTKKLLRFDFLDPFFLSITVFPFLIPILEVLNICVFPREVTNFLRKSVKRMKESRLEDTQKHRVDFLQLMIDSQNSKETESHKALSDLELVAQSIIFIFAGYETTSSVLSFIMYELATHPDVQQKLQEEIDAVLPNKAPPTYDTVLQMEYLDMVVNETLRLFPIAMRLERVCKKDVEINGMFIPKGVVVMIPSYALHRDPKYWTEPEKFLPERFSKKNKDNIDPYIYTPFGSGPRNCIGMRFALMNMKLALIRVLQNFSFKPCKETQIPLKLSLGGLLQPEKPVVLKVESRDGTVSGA
In short: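 Compound, from a 100 mM DMSO stock and diluted 1:1 over 10 points in co-factor mix, was incubated at 37° C with enzyme and a known substrate. Decrease in fluorescent product against concentration gave the IC50.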

[1] = Relative solubility by turbidity in aqueous buffers of varying pH; type: physicochemical; details: for turbidity threshold (L, M, H) 7.4: HEPES pH 7.4; for turbidity threshold (L, M, H) 4.5: SIF pH 4.5; for turbidity threshold (L, M, H) 6.8: SIF pH 6.8; for turbidity threshold (L, M, H) 1.4: buffer pH 1.4 (SGF)
In short: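 Turbidity endpoint: concentration where optical density at 490, 535 and 650 nm exceeds 0.01, three-wavelength average used. Buffers at pH 1.5, 4.5, 6.8 and 7.4; DMSO serial dilutions of 25 mM stock spiked 1 μL into 99 μL buffer. Low <31.3, moderate 31.3–250, high >250 μM.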

IC50 (CYP1A2) | IC50 (B-Raf) | IC50 (CYP2C19) | IC50 (B-Raf V600E) | IC50 (CYP3A4(BFC)) | Compound | turbidity threshold (L, M, H) 7.4 [1] | turbidity threshold (L, M, H) 4.5 [1] | turbidity threshold (L, M, H) 6.8 [1] | turbidity threshold (L, M, H) 1.4 [1]
> 10 µM | < 0.01 µM | > 10 µM | < 0.01 µM | > 10 µM | CCCS(=O)(=O)Nc1ccc(F)c(C(=O)c2c[nH]c3ncc(-c4ccc(S(=O)(=O)N5CCOCC5)cc4)cc23)c1F [P-2166, Propane-1-sulfonic acid (2,4-difluoro-3-{5-[4-(morpholine-4-sulfonyl)-phenyl]-1H-pyrrolo[2,3-b]pyridine-3-carbonyl}-phenyl)-amide] | L (low solubility if the threshold concentration is <31.3 04) | L (low solubility if the threshold concentration is <31.3 04) | L (low solubility if the threshold concentration is <31.3 04) | L (low solubility if the threshold concentration is <31.3 04)
> 10 µM | < 0.01 µM | 5 to 10 µM | < 0.01 µM | > 10 µM | CCCS(=O)(=O)Nc1ccc(F)c(C(=O)c2c[nH]c3ncc(-c4cn[nH]c4)cc23)c1F [P-2174, Propane-1-sulfonic acid {2,4-difluoro-3-[5-(1H-pyrazol-4-yl)-1H-pyrrolo[2,3-b]pyridine-3-carbonyl]-phenyl}-amide] | L (low solubility if the threshold concentration is <31.3 04) | L (low solubility if the threshold concentration is <31.3 04) | L (low solubility if the threshold concentration is <31.3 04) | L (low solubility if the threshold concentration is <31.3 04)
> 10 µM | < 0.01 µM | 5 to 10 µM | < 0.01 µM | < 5 µM | CCCS(=O)(=O)Nc1ccc(F)c(C(=O)c2c[nH]c3ncc(-c4cnn(CCN5CCOCC5)c4)cc23)c1F [P-2177, Propane-1-sulfonic acid (2,4-difluoro-3-{5-[1-(2-morpholin-4-yl-ethyl)-1H-pyrazol-4-yl]-1H-pyrrolo[2,3-b]pyridine-3-carbonyl}-phenyl)-amide] | L (low solubility if the threshold concentration is <31.3 04) | M (moderate solubility if the threshold concentration is 31.3 μM to 250 μM) | L (low solubility if the threshold concentration is <31.3 04) | H (high solubility if the threshold concentration is >250 μM)
> 10 µM | < 0.01 µM | 5 to 10 µM | < 0.01 µM | > 10 µM | CCCS(=O)(=O)Nc1ccc(F)c(C(=O)c2c[nH]c3ncc(-c4ccc(OCCCN(C)C)nc4)cc23)c1F [P-2178, Propane-1-sulfonic acid (3-{5-[6-(3-dimethylamino-propoxy)-pyridin-3-yl]-1H-pyrrolo[2,3-b]pyridine-3-carbonyl}-2,4-difluoro-phenyl)-amide] | L (low solubility if the threshold concentration is <31.3 04) | M (moderate solubility if the threshold concentration is 31.3 μM to 250 μM) | L (low solubility if the threshold concentration is <31.3 04) | H (high solubility if the threshold concentration is >250 μM)
> 10 µM | < 0.01 µM | 5 to 10 µM | < 0.01 µM | > 10 µM | CCCS(=O)(=O)Nc1ccc(F)c(C(=O)c2c[nH]c3ncc(-c4ccc(C(=O)NC)nc4)cc23)c1F [P-2180, 5-{3-[2,6-Difluoro-3-(propane-1-sulfonylamino)-benzoyl]-1H-pyrrolo[2,3-b]pyridin-5-yl}-pyridine-2-carboxylic acid methylamide] | L (low solubility if the threshold concentration is <31.3 04) | L (low solubility if the threshold concentration is <31.3 04) | L (low solubility if the threshold concentration is <31.3 04) | L (low solubility if the threshold concentration is <31.3 04)
> 10 µM | < 0.01 µM | > 10 µM | < 0.01 µM | > 10 µM | CCCS(=O)(=O)Nc1ccc(F)c(C(=O)c2c[nH]c3ncc(-c4ccc(C(=O)NC5CC5)nc4)cc23)c1F [P-2181, 5-{3-[2,6-Difluoro-3-(propane-1-sulfonylamino)-benzoyl]-1H-pyrrolo[2,3-b]pyridin-5-yl}-pyridine-2-carboxylic acid cyclopropylamide] | L (low solubility if the threshold concentration is <31.3 04) | L (low solubility if the threshold concentration is <31.3 04) | L (low solubility if the threshold concentration is <31.3 04) | L (low solubility if the threshold concentration is <31.3 04)
> 10 µM | < 0.01 µM | 5 to 10 µM | < 0.01 µM | > 10 µM | CCCS(=O)(=O)Nc1ccc(F)c(C(=O)c2c[nH]c3ncc(-c4ccc(S(C)(=O)=O)cc4)cc23)c1F [P-2183, Propane-1-sulfonic acid {2,4-difluoro-3-[5-(4-methanesulfonyl-phenyl)-1H-pyrrolo[2,3-b]pyridine-3-carbonyl]-phenyl}-amide] | L (low solubility if the threshold concentration is <31.3 04) | L (low solubility if the threshold concentration is <31.3 04) | L (low solubility if the threshold concentration is <31.3 04) | L (low solubility if the threshold concentration is <31.3 04)
> 10 µM | < 0.1 µM | > 10 µM | < 0.1 µM | > 10 µM | CCCS(=O)(=O)Nc1ccc(F)c(C(=O)c2c[nH]c3ncc(-c4ccc(OC)nc4OC)cc23)c1F [P-2184, Propane-1-sulfonic acid {3-[5-(2,6-dimethoxy-pyridin-3-yl)-1H-pyrrolo[2,3-b]pyridine-3-carbonyl]-2,4-difluoro-phenyl}-amide] | L (low solubility if the threshold concentration is <31.3 04) | L (low solubility if the threshold concentration is <31.3 04) | L (low solubility if the threshold concentration is <31.3 04) | L (low solubility if the threshold concentration is <31.3 04)

Compound | IC50 (CYP1A2) | IC50 (B-Raf) | IC50 (CYP2C19) | IC50 (B-Raf V600E) | IC50 (CYP3A4(BFC)) | turbidity threshold (L, M, H) 7.4 [1] | turbidity threshold (L, M, H) 4.5 [1] | turbidity threshold (L, M, H) 6.8 [1] | turbidity threshold (L, M, H) 1.4 [1]
CCCS(=O)(=O)Nc1ccc(F)c(C(=O)c2c[nH]c3ncc(-c4ccc(NS(C)(=O)=O)cc4)cc23)c1F [P-2165, Propane-1-sulfonic acid {2,4-difluoro-3-[5-(4-methanesulfonylamino-phenyl)-1H-pyrrolo[2,3-b]pyridine-3-carbonyl]-phenyl}-amide] | > 10 µM | < 0.01 µM | 5 to 10 µM | < 0.01 µM | > 10 µM | L (low solubility if the threshold concentration is <31.3 04) | L (low solubility if the threshold concentration is <31.3 04) | L (low solubility if the threshold concentration is <31.3 04) | L (low solubility if the threshold concentration is <31.3 04)
